These are literature values, as cited in US20250352520A1, “USE OF DEXPRAMIPEXOLE FOR THE TREATMENT OF EOSINOPHILIC COPD” (Areteia Therapeutics, Inc., priority 2024, published 2025).

Where two headings read alike, the source gives them in different places.

The conditions of series [1]: severe, uncontrolled, eosinophilic asthma; cited from earlier work.
The conditions of series [2]: patients with COPD, cited from earlier work.
For series [3] the following is noted: COPD; cited from earlier work.
The conditions of series [4]: cited from earlier work.

Regarding “benralizumab: an anti-interleukin-5 receptor monoclonal antibody”, in series [1], the eosinophils result is “effectively depleted eosinophils”, the exacerbations entry is listed as “decreased exacerbations” and the lung function result was “improved lung function”. Besides, in series [2] (all doses, throughout the trial), the blood eosinophils result is given as “substantial depletion of blood eosinophils”. Further, in series [2], the exacerbations entry is given as “failed to show statistically significant reduction of exacerbations”.

B1: mepolizumab: a humanized monoclonal antibody against interleukin-5 (antibody, chains of the INN, looked up, V domains shown)
VH: QVTLRESGPALVKPTQTLTLTCTVSGFSLTSYSVHWVRQPPGKGLEWLGVIWASGGTDYNSALMSRLSISKDTSRNQVVLTMTNMDPVDTATYYCARDPPSSLLRLDYWGRGTPVTVSS
VL: DIVMTQSPDSLAVSLGERATINCKSSQSLLNSGNQKNYLAWYQQKPGQPPKLLIYGASTRESGVPDRFSGSGSGTDFTLTISSLQAEDVAVYYCQNVHSFPFTFGGGTKLEIK
For the molecule B1, in series [3], the blood eosinophil counts result was “effectively reduced blood eosinophil counts”; the “lung function and clinical outcomes” value is “not associated with consistent improvements in lung function and clinical outcomes”. Moreover, in series [4], the asthma exacerbations entry is recorded as “significantly reduced asthma exacerbations” and the “biomarkers of asthma control” value is “associated with improvements in biomarkers of asthma control, including eosinophil counts”.
